Blank lines part the entries; values can stand above or below the compound they belong to.
Assays:
cutaneous wound healing = system: cutaneous wound healing; set-up: method as in PMID 20193736; details: cited from earlier work
[1] = system: tissue transglutaminase-2, TGF-1, and vascular endothelial growth factor; set-up: method as in PMID 20590611; details: sham OVX rats; cited from earlier work
injured skin = details: cited from earlier work
Xanthine oxidase = Xanthine oxidase (Homo sapiens, UniProt P47989); test: In vitro assay of xanthine oxidase activity; format: biochemical; details: for IC50: ± SD, triplicate
Chain of Xanthine oxidase (P47989 whole entry, species assumed): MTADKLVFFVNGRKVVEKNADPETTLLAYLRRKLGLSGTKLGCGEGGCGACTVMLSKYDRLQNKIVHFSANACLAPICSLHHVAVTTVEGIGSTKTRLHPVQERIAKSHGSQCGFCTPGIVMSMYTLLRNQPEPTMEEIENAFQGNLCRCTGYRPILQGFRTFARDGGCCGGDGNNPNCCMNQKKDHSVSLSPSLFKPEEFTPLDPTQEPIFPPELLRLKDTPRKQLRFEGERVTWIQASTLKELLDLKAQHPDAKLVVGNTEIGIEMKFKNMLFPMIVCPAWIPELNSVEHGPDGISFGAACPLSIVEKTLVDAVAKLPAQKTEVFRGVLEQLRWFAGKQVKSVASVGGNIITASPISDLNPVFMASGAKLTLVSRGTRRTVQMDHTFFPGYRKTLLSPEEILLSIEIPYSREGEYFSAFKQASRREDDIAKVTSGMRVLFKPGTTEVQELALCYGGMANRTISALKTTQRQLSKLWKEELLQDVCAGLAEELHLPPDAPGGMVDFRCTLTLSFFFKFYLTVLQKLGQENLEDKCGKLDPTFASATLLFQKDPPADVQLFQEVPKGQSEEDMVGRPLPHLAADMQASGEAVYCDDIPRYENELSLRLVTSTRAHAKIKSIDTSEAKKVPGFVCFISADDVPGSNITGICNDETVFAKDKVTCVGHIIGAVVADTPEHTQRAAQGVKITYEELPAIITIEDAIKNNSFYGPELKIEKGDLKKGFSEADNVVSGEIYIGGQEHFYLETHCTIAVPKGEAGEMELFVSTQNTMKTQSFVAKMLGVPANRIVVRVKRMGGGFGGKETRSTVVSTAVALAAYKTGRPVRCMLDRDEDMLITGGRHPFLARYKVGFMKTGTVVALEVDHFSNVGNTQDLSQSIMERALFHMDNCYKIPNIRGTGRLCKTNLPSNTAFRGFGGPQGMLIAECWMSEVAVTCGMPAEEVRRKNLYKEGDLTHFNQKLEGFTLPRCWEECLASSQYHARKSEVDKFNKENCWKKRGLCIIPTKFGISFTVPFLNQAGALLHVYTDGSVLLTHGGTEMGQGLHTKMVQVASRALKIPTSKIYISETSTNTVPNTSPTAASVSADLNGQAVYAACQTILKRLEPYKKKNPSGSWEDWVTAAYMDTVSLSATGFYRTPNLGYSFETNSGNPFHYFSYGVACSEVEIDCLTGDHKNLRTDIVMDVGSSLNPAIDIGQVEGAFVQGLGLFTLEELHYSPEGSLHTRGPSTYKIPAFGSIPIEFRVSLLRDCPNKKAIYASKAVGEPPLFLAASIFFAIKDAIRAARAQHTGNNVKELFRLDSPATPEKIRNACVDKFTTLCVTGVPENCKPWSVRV
Protocol: Xanthine oxidase (XO) inhibitory potential was carried out according to the previously described method. The color produced because of hydrogen peroxide release during the process of oxidation of XO was measured at 570 nm using the plate reader EPOCH™ “MICROPLATE READER (BIOTEK)”. Forty-four microliters of xanthine oxidase buffer were mixed with 2 µL of xanthine substrate solution and 2 µL of XO. […] was applied as a positive control. This experiment was performed in triplicate.

wound healing = system: wound healing; set-up: method as in PMID 28989011; details: cited from earlier work
Tyrosinase = Tyrosinase (Agaricus bisporus, UniProt C7FF04); test: In vitro assay of tyrosinase activity (DOPAchrome); format: biochemical
Chain of Tyrosinase (C7FF04 1-392): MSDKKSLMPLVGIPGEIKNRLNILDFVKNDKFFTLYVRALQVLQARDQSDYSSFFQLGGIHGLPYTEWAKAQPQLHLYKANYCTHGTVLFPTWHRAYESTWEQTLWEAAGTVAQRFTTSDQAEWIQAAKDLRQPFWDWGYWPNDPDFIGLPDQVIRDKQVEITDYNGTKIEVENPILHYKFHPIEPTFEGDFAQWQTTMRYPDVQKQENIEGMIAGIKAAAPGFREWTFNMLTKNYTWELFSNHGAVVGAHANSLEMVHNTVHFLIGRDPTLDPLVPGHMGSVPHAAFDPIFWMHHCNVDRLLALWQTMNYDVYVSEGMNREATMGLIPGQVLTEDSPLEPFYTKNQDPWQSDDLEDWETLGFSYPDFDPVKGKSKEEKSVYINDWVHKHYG
Protocol: The tyrosinase inhibitory activity was measured from the following equation: inhibitory activity (%) = (1 − A/B) × 100, (9) where A and B are the absorbance of the mixture in presence or absence of test flavonoid, respectively. Every experiment was done in triplicate.

[2] = system: incisional and excisional wounds; details: topical application; diabetic and non-diabetic rats; cited from earlier work

SMILES: O=c1c(-c2ccc(O)cc2)coc2cc(O)cc(O)c12 [Genistein]
wound healing (cutaneous wound healing): accelerated wound healing
effect on tissue transglutaminase-2, TGF-1 and vascular endothelial growth factor [1]: reduced tissue transglutaminase-2, TGF-1, and vascular endothelial growth factor

SMILES: COc1ccc([C@@H]2CC(=O)c3c(O)cc(O[C@@H]4O[C@H](CO[C@@H]5O[C@@H](C)[C@H](O)[C@@H](O)[C@H]5O)[C@@H](O)[C@H](O)[C@H]4O)cc3O2)cc1O [Hesperidin]
healing of injured skin (injured skin): sufficient healing benefits on injured skin

IC50 (Xanthine oxidase): 3.63 ± 0.18 µM
SMILES: N[C@@H](Cn1ccc(=O)c(O)c1)C(=O)O [L-mimosine, reference compound]

activity against xanthine oxidase (in words) (Xanthine oxidase): weak or inactivity
IC50 (Xanthine oxidase): > 100 µM
SMILES: COc1ccc([C@@H]2CC(=O)c3c(O)cc(O)cc3O2)cc1O [Compound 5, hesperetin]

SMILES: O=c1c(-c2ccc(O)cc2)c(O)oc2cc(O)cc(O)c12 [Compound 4, 2-hydroxygenistein]
wound healing (wound healing): promote wound healing

SMILES: O=c1c(O)c(-c2ccc(O)cc2)oc2cc(O[C@@H]3O[C@H](CO)[C@@H](O)[C@H](O)[C@H]3O)cc(O)c12 [Compound 3, kaempferol-7-O-β-D-glucopyranoside]
IC50 (Xanthine oxidase): 6.39 ± 0.36 µM
activity against tyrosinase (in words) (Tyrosinase): inactive or weakly active

SMILES: O=c1c(O)c(-c2ccc(O)cc2)oc2cc(O)cc(O)c12 [Compound 1, kaempferol]
wound healing effect [2]: healing effects

activity against xanthine oxidase (in words) (Xanthine oxidase): weak or inactivity
IC50 (Xanthine oxidase): 73.7 ± 2.33 µM
activity against tyrosinase (in words) (Tyrosinase): inactive or weakly active
SMILES: O=c1c(O)c(-c2ccc(O[C@@H]3O[C@H](CO)[C@@H](O)[C@H](O)[C@H]3O)cc2)oc2cc(O)cc(O)c12 [Compound 2, kaempferol-4′-O-β-D-glucopyranoside]

— paper PMC9138151, “Bioactive Phytochemicals of Citrus reticulata Seeds—An Example of Waste Product Rich in Healthy Skin Promoting Agents” (Antioxidants, 2022)
